Here are results for 35 compounds from patent US12522602B2, “Derivatives having 2,3-dihydro-1H-indene or 2,3-dihydrobenzofuran moiety or pharmaceutically acceptable salt thereof and pharmaceutical compositions comprising the same” (YUHAN CORPORATION, priority 2019, dated 2026).

Each structure is given as a SMILES string. pIC50: −log10 of the molar value.

The test system of this experiment is GM1 production in Jurkat cells. The experiment is described as follows: cells. In kind it is cell-based. As to conditions: Homo sapiens, Jurkat, 72 h.

Compound `CCOc1ccc(F)cc1-c1ccc2c(c1)CC(C)(C)C2NC(=O)O[C@@H]1CN2CCC1CC2` (stereo partly drawn) [Example 256, (S)-quinuclidin-3-yl (5-(2-ethoxy-5-fluorophenyl)-2,2-dimethyl-2,3-dihydro-1H-inden-1-yl)carbamate] gave a pIC50 of 7.61.

Turning to `CCCOc1cc(F)cc(-c2ccc3c(c2)CC(C)(C)C3NC(=O)O[C@@H]2CN3CCC2CC3)c1` (stereo partly drawn) [Example 257, (S)-quinuclidin-3-yl (5-(3-fluoro-5-propoxyphenyl)-2,2-dimethyl-2,3-dihydro-1H-inden-1-yl)carbamate], the pIC50 was 7.56. Under `CC1(C)Cc2cc(-c3cc(C(F)(F)F)cc(C(F)(F)F)c3)ccc2C1NC(=O)O[C@@H]1CN2CCC1CC2` (stereo partly drawn) [Example 258, (S)-quinuclidin-3-yl (5-(3,5-bis(trifluoromethyl)phenyl)-2,2-dimethyl-2,3-dihydro-1H-inden-1-yl)carbamate] stands 7.76; under `Cc1ccc(-c2ccc3c(c2)CC(C)(C)C3NC(=O)O[C@@H]2CN3CCC2CC3)cc1Cl` (stereo partly drawn) [Example 259, (S)-quinuclidin-3-yl (5-(3-chloro-4-methylphenyl)-2,2-dimethyl-2,3-dihydro-1H-inden-1-yl)carbamate], 7.99. In the case of `Cc1ccc(C)c(-c2ccc3c(c2)CC(C)(C)C3NC(=O)O[C@@H]2CN3CCC2CC3)c1` (stereo partly drawn) [Example 260, (S)-quinuclidin-3-yl (5-(2,5-dimethylphenyl)-2,2-dimethyl-2,3-dihydro-1H-inden-1-yl)carbamate], the pIC50 is 7.84. Under `CC1(C)Cc2cc(-c3ccc(F)c(Cl)c3)ccc2C1NC(=O)O[C@@H]1CN2CCC1CC2` (stereo partly drawn) [Example 261, (S)-quinuclidin-3-yl (5-(3-chloro-4-fluorophenyl)-2,2-dimethyl-2,3-dihydro-1H-inden-1-yl)carbamate] stands 7.29.

For the compound `CCOc1ccc(-c2ccc3c(c2)CC(C)(C)C3NC(=O)O[C@@H]2CN3CCC2CC3)cn1` (stereo partly drawn) [Example 262, (S)-quinuclidin-3-yl (5-(6-ethoxypyridin-3-yl)-2,2-dimethyl-2,3-dihydro-1H-inden-1-yl)carbamate], the pIC50 was 7.46. Under `CCOc1cc(-c2ccc3c(c2)CC(C)(C)C3NC(=O)O[C@@H]2CN3CCC2CC3)ccn1` (stereo partly drawn) [Example 263, (S)-quinuclidin-3-yl (5-(2-ethoxypyridin-4-yl)-2,2-dimethyl-2,3-dihydro-1H-inden-1-yl)carbamate] stands 7.46; under `CC(C)Oc1cc(-c2ccc3c(c2)CC(C)(C)C3NC(=O)O[C@@H]2CN3CCC2CC3)ccn1` (stereo partly drawn) [Example 264, (S)-quinuclidin-3-yl (5-(2-isopropoxypyridin-4-yl)-2,2-dimethyl-2,3-dihydro-1H-inden-1-yl)carbamate], 7.84. In the case of `CCCOc1ccc(-c2ccc3c(c2)CC(C)(C)C3NC(=O)O[C@@H]2CN3CCC2CC3)cn1` (stereo partly drawn) [Example 265, (S)-quinuclidin-3-yl (2,2-dimethyl-5-(6-propoxypyridin-3-yl)-2,3-dihydro-1H-inden-1-yl)carbamate], the pIC50 is 8.17. With `CCCCOc1ccc(-c2ccc3c(c2)CC(C)(C)C3NC(=O)O[C@@H]2CN3CCC2CC3)cn1` (stereo partly drawn) [Example 266, (S)-quinuclidin-3-yl (5-(6-butoxypyridin-3-yl)-2,2-dimethyl-2,3-dihydro-1H-inden-1-yl)carbamate], the pIC50 is 8.33. The pIC50 values of the last two compounds are within 0.2 log units of each other.

As to `COCCOc1ccc(-c2ccc3c(c2)CC(C)(C)C3NC(=O)O[C@@H]2CN3CCC2CC3)cn1` (stereo partly drawn) [Example 267, (S)-quinuclidin-3-yl (5-(6-(2-methoxyethoxy)pyridin-3-yl)-2,2-dimethyl-2,3-dihydro-1H-inden-1-yl)carbamate], the pIC50 is 7.08. Under `CC(C)COc1ccc(-c2ccc3c(c2)CC(C)(C)C3NC(=O)O[C@@H]2CN3CCC2CC3)cn1` (stereo partly drawn) [Example 268, (S)-quinuclidin-3-yl (5-(6-isobutoxypyridin-3-yl)-2,2-dimethyl-2,3-dihydro-1H-inden-1-yl)carbamate] stands 8.60. On to `CC(C)Cc1cccc(-c2ccc3c(c2)CC(C)(C)C3NC(=O)O[C@@H]2CN3CCC2CC3)c1` (stereo partly drawn) [Example 269, (S)-quinuclidin-3-yl (5-(3-isobutylphenyl)-2,2-dimethyl-2,3-dihydro-1H-inden-1-yl)carbamate], for which the pIC50 was 8.19. As to `CCCCOc1ccc(-c2ccc3c(c2)CC(C)(C)C3NC(=O)O[C@@H]2CN3CCC2CC3)cc1` (stereo partly drawn) [Example 270, (S)-quinuclidin-3-yl (5-(4-butoxyphenyl)-2,2-dimethyl-2,3-dihydro-1H-inden-1-yl)carbamate], the pIC50 was 8.64.

Consider `COc1ccnc(OC)c1-c1ccc2c(c1)CC(C)(C)C2NC(=O)O[C@@H]1CN2CCC1CC2` (stereo partly drawn) [Example 271, (S)-quinuclidin-3-yl (5-(2,4-dimethoxypyridin-3-yl)-2,2-dimethyl-2,3-dihydro-1H-inden-1-yl)carbamate], for which the pIC50 was 7.51.

Turning to `CC(=O)c1sccc1-c1ccc2c(c1)CC(C)(C)C2NC(=O)O[C@@H]1CN2CCC1CC2` (stereo partly drawn) [Example 272, (S)-quinuclidin-3-yl (5-(2-acetylthiophen-3-yl)-2,2-dimethyl-2,3-dihydro-1H-inden-1-yl)carbamate], the pIC50 is 7.31. Take `CC1(C)Cc2cc(/C=C/c3cccc(F)c3)ccc2C1NC(=O)O[C@@H]1CN2CCC1CC2` (stereo partly drawn) [Example 273, (S)-quinuclidin-3-yl (5-((E)-3-fluorostyryl)-2,2-dimethyl-2,3-dihydro-1H-inden-1-yl)carbamate]: the pIC50 was 7.87. This pIC50 is 0.56 log units higher than that of the compound before. The figure for `CCc1ccc(/C=C/c2ccc3c(c2)CC(C)(C)C3NC(=O)O[C@@H]2CN3CCC2CC3)cc1` (stereo partly drawn) [Example 274, (S)-quinuclidin-3-yl (5-((E)-4-ethylstyryl)-2,2-dimethyl-2,3-dihydro-1H-inden-1-yl)carbamate] is 7.99. Under `CC1(C)Cc2cc(/C=C/C3CCCCC3)ccc2C1NC(=O)O[C@@H]1CN2CCC1CC2` (stereo partly drawn) [Example 275, (S)-quinuclidin-3-yl (5-((E)-2-cyclohexylvinyl)-2,2-dimethyl-2,3-dihydro-1H-inden-1-yl)carbamate] stands 7.60; under `CCC1(CC)Cc2cc(-c3ccc(F)cc3)ccc2C1NC(=O)O[C@@H]1CN2CCC1CC2` (stereo partly drawn) [Example 276, (S)-quinuclidin-3-yl (2,2-diethyl-5-(4-fluorophenyl)-2,3-dihydro-1H-inden-1-yl)carbamate], 7.48; under `CCc1ccc(-c2ccc3c(c2)CC(CC)(CC)C3NC(=O)O[C@@H]2CN3CCC2CC3)cc1` (stereo partly drawn) [Example 277, (S)-quinuclidin-3-yl (2,2-diethyl-5-(4-ethylphenyl)-2,3-dihydro-1H-inden-1-yl)carbamate], 8.57.

`CCCc1ccc(-c2ccc3c(c2)CC(CC)(CC)C3NC(=O)O[C@@H]2CN3CCC2CC3)cc1` (stereo partly drawn) [Example 278, (S)-quinuclidin-3-yl (2,2-diethyl-5-(4-propylphenyl)-2,3-dihydro-1H-inden-1-yl)carbamate]: the pIC50 is 8.22. `CCC1(CC)Cc2cc(-c3ccc(C(C)(C)C)cc3)ccc2C1NC(=O)O[C@@H]1CN2CCC1CC2` (stereo partly drawn) [Example 279, (S)-quinuclidin-3-yl (5-(4-(tert-butyl)phenyl)-2,2-diethyl-2,3-dihydro-1H-inden-1-yl)carbamate]: the pIC50 was 8.14. Under `CCCCc1ccc(-c2ccc3c(c2)CC(CC)(CC)C3NC(=O)O[C@@H]2CN3CCC2CC3)cc1` (stereo partly drawn) [Example 280, (S)-quinuclidin-3-yl (5-(4-butylphenyl)-2,2-diethyl-2,3-dihydro-1H-inden-1-yl)carbamate] stands 8.80; under `CCC1(CC)Cc2cc(-c3ccc(C4CC4)cc3)ccc2C1NC(=O)O[C@@H]1CN2CCC1CC2` (stereo partly drawn) [Example 281, (S)-quinuclidin-3-yl (5-(4-cyclopropylphenyl)-2,2-diethyl-2,3-dihydro-1H-inden-1-yl)carbamate], 8.30; under `CCC1(CC)Cc2cc(-c3ccc(C(C)C)cc3)ccc2C1NC(=O)O[C@@H]1CN2CCC1CC2` (stereo partly drawn) [Example 282, (S)-quinuclidin-3-yl (2,2-diethyl-5-(4-isopropylphenyl)-2,3-dihydro-1H-inden-1-yl)carbamate], 8.25. As to `CCC1(CC)Cc2cc(-c3ccc(OC)cc3)ccc2C1NC(=O)O[C@@H]1CN2CCC1CC2` (stereo partly drawn) [Example 283, (S)-quinuclidin-3-yl (2,2-diethyl-5-(4-methoxyphenyl)-2,3-dihydro-1H-inden-1-yl)carbamate], the pIC50 was 7.76. For the compound `CCOc1ccc(-c2ccc3c(c2)CC(CC)(CC)C3NC(=O)O[C@@H]2CN3CCC2CC3)cc1` (stereo partly drawn) [Example 284, (S)-quinuclidin-3-yl (5-(4-ethoxyphenyl)-2,2-diethyl-2,3-dihydro-1H-inden-1-yl)carbamate], the pIC50 was 8.07. This pIC50 lies 0.31 log units higher than the previous one. With `CCCOc1ccc(-c2ccc3c(c2)CC(CC)(CC)C3NC(=O)O[C@@H]2CN3CCC2CC3)cc1` (stereo partly drawn) [Example 285, (S)-quinuclidin-3-yl (2,2-diethyl-5-(4-propoxyphenyl)-2,3-dihydro-1H-inden-1-yl)carbamate], the negative logarithm of the IC50 (pIC50) was 8.43.

Turning to `CCC1(CC)Cc2cc(-c3ccc(OC(C)C)cc3)ccc2C1NC(=O)O[C@@H]1CN2CCC1CC2` (stereo partly drawn) [Example 286, (S)-quinuclidin-3-yl (2,2-diethyl-5-(4-isopropoxyphenyl)-2,3-dihydro-1H-inden-1-yl)carbamate], the pIC50 was 8.39. For the compound `CCC1(CC)Cc2cc(-c3ccc(CC(C)C)cc3)ccc2C1NC(=O)O[C@@H]1CN2CCC1CC2` (stereo partly drawn) [Example 287, (S)-quinuclidin-3-yl (2,2-diethyl-5-(4-isobutylphenyl)-2,3-dihydro-1H-inden-1-yl)carbamate], the pIC50 was 8.39. Regarding `CCC1(CC)Cc2cc(-c3cccc(F)c3)ccc2C1NC(=O)O[C@@H]1CN2CCC1CC2` (stereo partly drawn) [Example 288, (S)-quinuclidin-3-yl (2,2-diethyl-5-(3-fluorophenyl)-2,3-dihydro-1H-inden-1-yl)carbamate], the pIC50 was 7.95.

For `CCC1(CC)Cc2cc(-c3cccc(OC)c3)ccc2C1NC(=O)O[C@@H]1CN2CCC1CC2` (stereo partly drawn) [Example 289, (S)-quinuclidin-3-yl (2,2-diethyl-5-(3-methoxyphenyl)-2,3-dihydro-1H-inden-1-yl)carbamate], the pIC50 is 8.13. Take `CCOc1cccc(-c2ccc3c(c2)CC(CC)(CC)C3NC(=O)O[C@@H]2CN3CCC2CC3)c1` (stereo partly drawn) [Example 290, (S)-quinuclidin-3-yl (5-(3-ethoxyphenyl)-2,2-diethyl-2,3-dihydro-1H-inden-1-yl)carbamate]: the pIC50 was 7.91.
